From patent US11530244B2, “Cyclic polypeptides for PCSK9 inhibition” (priority 2018, dated 2022) come the findings set out here.

Starred links: 1 amine or outer side, 2 acyl side, 3 side chain; linkers in the order of their positions; H or OH if unused. Positions of bridges follow the written chain, without caps; N, C: chain ends. Non-standard residues stand in square brackets, D forms with d. Residues, ends and D or L forms follow the SMILES beside them. Trp(βS-Me) = C[C@@H](c1c[nH]c2ccccc12)[C@H](N)C(=O)O; NHCH2C6H4(p)CH2CH2NH = c1cc(CN[*:1])ccc1CCN[*:2]; NMeTrp(1-Me) = CN[C@@H](Cc1cn(C)c2ccccc12)C(=O)O; Phe(4-COOH) = N[C@@H](Cc1ccc(C(=O)O)cc1)C(=O)O; Trp(5-F) = N[C@@H](Cc1c[nH]c2ccc(F)cc12)C(=O)O; Trp(6-F) = N[C@@H](Cc1c[nH]c2cc(F)ccc12)C(=O)O; Phe(4-CH2NH2) = NCc1ccc(C[C@H](N)C(=O)O)cc1; X3 = O=C(CCSCc1cc(F)cc(CSCCN[*:1])c1)[*:2]; 2Nal = N[C@@H](Cc1ccc2ccccc2c1)C(=O)O; mXylylene = c1cc(C[*:1])cc(C[*:2])c1; AEF = NCCOc1ccc(C[C@H](N)C(=O)O)cc1; X6 = O=C(Cc1ccc(CN[*:2])cc1)[*:1]; Hyp = O=C(O)[C@@H]1C[C@@H](O)CN1; NMeT = CN[C@H](C(=O)O)[C@@H](C)O; Aad = N[C@@H](CCCC(=O)O)C(=O)O; dNMeL = CN[C@H](CC(C)C)C(=O)O; Suc = O=C(CCC(=O)[*:2])[*:1]; αMeP = C[C@@]1(C(=O)O)CCCN1; Nva = CCC[C@H](N)C(=O)O; Ahx = NCCCCCC(=O)O; Mpa = O=C(O)CCS

This experiment concerns the target PCSK9 (Homo sapiens (Human), UniProt Q8NBP7). Description: PCSK9 Alexa FRET Standard assay (displacement of AlexaFluor647 tagged cyclic peptide Reagent A). The format is binding. Conditions: PCSK9 Alexa FRET Standard assay, 0.5 nM PCSK9, 20 nM AF cyclic peptide Reagent A; read-out: IC50. Here is the method:
A solution containing 1 nM biotinylated PCSK9+2.5 nM Lance Streptavidin Europium (Strep-Eu) was made in 50 mM HEPES pH 7.4, 0.15 M NaCl, 5 mM CaCl2), 0.01% BSA, and 0.01% Surfactant P20. A separate solution containing 40 nM of the AlexaFluor tagged cyclic peptide was made in the same buffer system. An Echo was used to transfer 0.750 ul of compound to an assay plate followed by the addition of 15 ul of PCSK9+Stept-Eu and 15 ul of AF peptide. The final assay volume was 30.750 ul containing 0.5 nM PCSK9, 1.25 nM Strep-Eu, and 20 nM AF cyclic peptide. The reaction was incubated at room temperature for at least two hours prior to fluorescence measurements using an Envision Multilabel Reader. IC50 values were determined by fitting data to a sigmoidal dose-response curve using nonlinear regression. Ki was then calculated from the IC50 and the KD of AF cyclic peptide. Counts (B-counts) of the europium-labeled PCSK9 were followed to observe if compounds were […]. A fall off of the B-counts likely indicated a false positive of inhibition. Data from this procedure was reported as “A=‘numerical value’ (nanomolar)”

PCSK9, sequence (Q8NBP7 153-692): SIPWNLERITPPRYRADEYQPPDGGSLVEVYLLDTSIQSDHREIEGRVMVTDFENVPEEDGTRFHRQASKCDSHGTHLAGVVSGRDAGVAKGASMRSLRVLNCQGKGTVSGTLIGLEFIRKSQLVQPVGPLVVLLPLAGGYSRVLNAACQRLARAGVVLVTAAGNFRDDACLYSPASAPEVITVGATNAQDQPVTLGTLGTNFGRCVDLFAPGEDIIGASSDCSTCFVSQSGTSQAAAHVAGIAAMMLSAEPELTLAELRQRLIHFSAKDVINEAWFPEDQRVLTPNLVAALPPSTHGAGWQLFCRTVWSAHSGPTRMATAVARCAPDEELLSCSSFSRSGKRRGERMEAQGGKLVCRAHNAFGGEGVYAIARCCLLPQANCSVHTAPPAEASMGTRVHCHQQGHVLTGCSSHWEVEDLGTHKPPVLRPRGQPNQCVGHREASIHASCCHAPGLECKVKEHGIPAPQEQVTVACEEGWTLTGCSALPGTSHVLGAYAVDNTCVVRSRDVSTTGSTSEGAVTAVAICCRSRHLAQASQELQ

A word on the IC50: it is the point on the concentration scale where inhibition reaches its midpoint. For `COc1ccc(C[C@@H]2NC(=O)[C@H](Cc3cnc[nH]3)NC(=O)[C@H](CC(=O)O)NC(=O)[C@H](Cc3c[nH]c4ccc(F)cc34)NC(=O)[C@H](Cc3c[nH]c4ccc(F)cc34)NC(=O)[C@@H](C)NC(=O)[C@H](CCCCN)NC(=O)[C@@H](NC(C)=O)CC(=O)NCc3ccc(cc3)C[C@@H](C(N)=O)NC(=O)[C@]3(C)CCCN3C2=O)cc1` [Compound 348] (Ac-DK[dA][Trp(5-F)][Trp(5-F)]DHY(Me)[αMeP][Phe(4-CH2NH2)]-NH2; lactam 1-10), the IC50 lay in the range of 21 to 50 µM.

With `COc1ccc(C[C@@H]2NC(=O)[C@@H]([C@H](C)O)NC(=O)[C@@H]3C[C@@H](O)CN3C(=O)[C@H](Cc3c[nH]c4ccc(F)cc34)NC(=O)[C@H](Cc3c[nH]c4ccc(F)cc34)NC(=O)[C@@H](C)NC(=O)[C@H](CCCCN)NC(=O)CCSCc3cc(F)cc(c3)CSCCNC(=O)[C@]3(C)CCCN3C2=O)cc1` [Compound 087] (cyclo([Hyp][dT]Y(Me)[αMeP][X3]K[dA][Trp(5-F)][Trp(5-F)])), the IC50 lay in the range of 21 to 50 µM.

Consider `CCC[C@@H]1NC(=O)CCSCc2cccc(c2)CSC[C@@H](C(N)=O)NC(=O)[C@@H]2CCCN2C(=O)[C@H](Cc2ccc(OC)cc2)NC(=O)[C@H]([C@@H](C)OC)N(C)C(=O)[C@@H]2CCCN2C(=O)[C@H](Cc2cn(C)c3ccccc23)N(C)C(=O)[C@H](Cc2ccc3ccccc3c2)NC(=O)[C@@H](CC(C)C)N(C)C1=O` [Compound 039] ([Mpa][Nva][dNMeL][2Nal][NMeTrp(1-Me)]P[NMeT](Me)Y(Me)PC-NH2; linker 1-10 via mXylylene), for which the half-inhibitory concentration (IC50) fell in the range of 21 to 50 µM.

On to `COc1ccc(C[C@@H]2NC(=O)[C@H](Cc3cnc[nH]3)NC(=O)[C@H](CC(=O)O)NC(=O)[C@H](Cc3c[nH]c4ccc(F)cc34)NC(=O)[C@H](Cc3c[nH]c4ccc(F)cc34)NC(=O)[C@@H](C)NC(=O)[C@H](CCCCN)NC(=O)[C@@H](NC(C)=O)CC(=O)NCc3ccc(cc3)CCNC(=O)[C@]3(C)CCCN3C2=O)cc1` [Compound 411] (Ac-DK[dA][Trp(5-F)][Trp(5-F)]DHY(Me)[αMeP]; linker 1-C via NHCH2C6H4(p)CH2CH2NH), for which the IC50 is 1 to 12.1 µM.

Consider `COc1ccc(C[C@@H]2NC(=O)[C@H](Cc3cnc[nH]3)NC(=O)[C@H](CC(=O)O)NC(=O)[C@H](Cc3c[nH]c4ccc(F)cc34)NC(=O)[C@H](Cc3c[nH]c4ccc(F)cc34)NC(=O)[C@@H](C)NC(=O)[C@H](NC(C)=O)CCCCNC(=O)Cc3ccc(cc3)CNC(=O)CCC[C@@H](C(N)=O)NC(=O)[C@]3(C)CCCN3C2=O)cc1` [Compound 433] (Ac-[dK][dA][Trp(5-F)][Trp(5-F)]DHY(Me)[αMeP][Aad]-NH2; linker 1-9 via X6), for which the IC50 is 0.1 to 1 µM.

Consider `COc1ccc(C[C@@H]2NC(=O)[C@H](Cc3cnc[nH]3)NC(=O)[C@H](CC(=O)O)NC(=O)[C@H](Cc3c[nH]c4cc(F)ccc34)NC(=O)[C@H](Cc3c[nH]c4ccc(F)cc34)NC(=O)[C@@H](C)NC(=O)CCCCCNC(=O)c3ccc(cc3)C[C@@H](C(N)=O)NC(=O)[C@]3(C)CCCN3C2=O)cc1` [Compound 350] ([Ahx][dA][Trp(5-F)][Trp(6-F)]DHY(Me)[αMeP][Phe(4-COOH)]-NH2; lactam N-9), for which the IC50 lay in the range of 21 to 50 µM.

Consider `C[C@@H](c1c[nH]c2ccccc12)[C@@H]1NC(=O)CNC(=O)[C@H](CCCCN)NC(=O)CCSCc2cccc(c2)CSC[C@@H](C(N)=O)NC(=O)[C@]2(C)CCCN2C(=O)[C@H](Cc2ccc(O)cc2)NC(=O)[C@H](Cc2cnc[nH]2)NC(=O)[C@H](CC(=O)O)NC(=O)[C@H](Cc2c[nH]c3ccc(F)cc23)NC1=O` [Compound 430] ([Mpa]KG[Trp(βS-Me)][Trp(5-F)]DHY[αMeP]C-NH2; linker 1-10 via mXylylene), for which the IC50 was in the range of 1 to 12.1 µM.

In the case of `COc1ccc(C[C@@H]2NC(=O)[C@H](Cc3cnc[nH]3)NC(=O)[C@H](CC(=O)O)NC(=O)[C@H](Cc3c[nH]c4ccc(F)cc34)NC(=O)[C@H](Cc3c[nH]c4ccc(F)cc34)NC(=O)[C@@H](C)NC(=O)CCC(=O)NCCOc3ccc(cc3)C[C@@H](C(N)=O)NC(=O)[C@]3(C)CCCN3C2=O)cc1` [Compound 436] ([dA][Trp(5-F)][Trp(5-F)]DHY(Me)[αMeP][AEF]-NH2; linker N-8 via Suc), the IC50 fell in the range of 21 to 50 µM.

As for `COc1ccc(C[C@@H]2NC(=O)[C@H](Cc3cnc[nH]3)NC(=O)[C@H](CC(=O)O)NC(=O)[C@H](Cc3c[nH]c4ccc(F)cc34)NC(=O)[C@H](Cc3c[nH]c4ccc(F)cc34)NC(=O)[C@@H](C)NC(=O)[C@H](NC(C)=O)CCC(=O)NCc3ccc(cc3)CCNC(=O)C[C@@H](C(N)=O)NC(=O)[C@]3(C)CCCN3C2=O)cc1` [Compound 451] (Ac-[dE][dA][Trp(5-F)][Trp(5-F)]DHY(Me)[αMeP]D-NH2; linker 1-9 via NHCH2C6H4(p)CH2CH2NH), the IC50 fell in the range of 0.1 to 1 µM.
